{
  "source": "paper PMC6459903",
  "about": "“The enzymes OSC1 and CYP716A263 produce a high variety of triterpenoids in the latex of Taraxacum koksaghyz” (Scientific Reports, 2019)",
  "type_in_all_cases": "cell-based",
  "key": {"[1]": {"target": "T1, TkOSC6 (Taraxacum kok-saghyz, UniProt A0A3S7RZ84)", "T1 construct": "gene OSC6; unmodified full-length protein; expressed in S. cerevisiae CEN.PK2-1C and N. benthamiana", "T1 sequence (A0A3S7RZ84 1-758)": "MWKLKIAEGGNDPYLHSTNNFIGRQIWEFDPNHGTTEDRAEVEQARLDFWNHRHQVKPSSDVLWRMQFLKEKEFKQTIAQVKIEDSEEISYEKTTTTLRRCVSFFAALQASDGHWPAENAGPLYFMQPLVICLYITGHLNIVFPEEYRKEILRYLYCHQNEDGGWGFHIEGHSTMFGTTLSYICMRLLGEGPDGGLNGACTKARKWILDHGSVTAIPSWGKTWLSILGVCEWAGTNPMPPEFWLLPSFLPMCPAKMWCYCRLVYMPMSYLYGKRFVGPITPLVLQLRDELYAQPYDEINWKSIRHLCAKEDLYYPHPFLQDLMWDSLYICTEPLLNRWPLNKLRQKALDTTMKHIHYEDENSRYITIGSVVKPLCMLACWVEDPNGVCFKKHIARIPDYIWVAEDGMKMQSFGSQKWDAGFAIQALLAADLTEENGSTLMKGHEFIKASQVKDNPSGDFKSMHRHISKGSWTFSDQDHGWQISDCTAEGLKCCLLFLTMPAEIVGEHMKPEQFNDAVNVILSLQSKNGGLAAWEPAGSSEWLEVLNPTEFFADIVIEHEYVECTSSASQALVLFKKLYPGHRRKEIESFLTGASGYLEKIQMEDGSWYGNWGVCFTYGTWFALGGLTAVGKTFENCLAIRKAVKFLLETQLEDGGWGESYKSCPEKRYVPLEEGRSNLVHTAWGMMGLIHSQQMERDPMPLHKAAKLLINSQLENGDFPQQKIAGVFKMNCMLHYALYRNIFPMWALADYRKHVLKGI", "test": "expression in S. cerevisiae, GC-MS", "settings": "endogenous 2,3-oxidosqualene as substrate; erg7 repressed by CuSO4; main product"}, "[2]": {"target": "T2, CYP716A263/AtR2 (Taraxacum kok-saghyz, UniProt A0A3S5GS06)", "T2 construct": "full-length P450, 473 residues, co-expressed with Arabidopsis thaliana reductase AtR2 in S. cerevisiae CEN.PK2-1C; with NADPH--cytochrome P450 reductase 2 (Arabidopsis thaliana)", "T2 sequence (A0A3S5GS06 1-473)": "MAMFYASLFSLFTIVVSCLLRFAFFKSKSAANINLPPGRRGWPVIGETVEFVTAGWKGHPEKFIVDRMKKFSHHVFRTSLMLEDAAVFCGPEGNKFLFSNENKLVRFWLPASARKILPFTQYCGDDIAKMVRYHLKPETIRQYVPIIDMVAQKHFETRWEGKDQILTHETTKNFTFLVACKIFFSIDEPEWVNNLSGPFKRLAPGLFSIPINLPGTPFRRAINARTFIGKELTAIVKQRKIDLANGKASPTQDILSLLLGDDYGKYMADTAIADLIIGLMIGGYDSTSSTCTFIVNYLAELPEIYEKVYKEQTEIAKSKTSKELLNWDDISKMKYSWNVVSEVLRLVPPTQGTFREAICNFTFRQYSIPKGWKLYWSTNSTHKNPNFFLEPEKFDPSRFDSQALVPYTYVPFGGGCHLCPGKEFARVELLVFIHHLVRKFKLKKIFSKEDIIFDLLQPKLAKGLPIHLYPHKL", "T2 sequence (Q9SUM3 whole entry partner)": "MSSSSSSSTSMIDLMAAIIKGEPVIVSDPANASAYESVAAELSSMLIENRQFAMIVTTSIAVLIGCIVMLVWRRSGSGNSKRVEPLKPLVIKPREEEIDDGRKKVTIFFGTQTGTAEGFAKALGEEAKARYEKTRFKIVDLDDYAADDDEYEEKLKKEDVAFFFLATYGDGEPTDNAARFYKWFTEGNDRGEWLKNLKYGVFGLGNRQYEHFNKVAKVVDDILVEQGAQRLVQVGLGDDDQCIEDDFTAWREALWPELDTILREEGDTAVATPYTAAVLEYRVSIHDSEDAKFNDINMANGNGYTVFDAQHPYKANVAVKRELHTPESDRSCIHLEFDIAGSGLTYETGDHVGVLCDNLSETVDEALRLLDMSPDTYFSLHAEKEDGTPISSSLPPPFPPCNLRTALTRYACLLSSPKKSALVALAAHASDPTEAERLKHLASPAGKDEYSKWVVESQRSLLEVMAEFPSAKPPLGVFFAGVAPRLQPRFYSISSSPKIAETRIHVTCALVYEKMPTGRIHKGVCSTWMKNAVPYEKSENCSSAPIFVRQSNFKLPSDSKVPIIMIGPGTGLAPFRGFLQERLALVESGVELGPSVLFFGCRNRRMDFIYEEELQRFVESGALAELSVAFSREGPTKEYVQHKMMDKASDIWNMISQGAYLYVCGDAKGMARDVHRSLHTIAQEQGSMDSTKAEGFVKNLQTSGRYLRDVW", "test": "co-expression in S. cerevisiae, GC-MS", "settings": "C-3 oxidation to taraxasterone; taraxasterol formed in situ by co-expressed TkLUPN-TkOSC1C; AtR2 reductase"}, "[3]": {"target": "T3, TkLUP (Taraxacum kok-saghyz, UniProt A0A3B1EU92)", "T3 construct": "gene Lup; full-length cDNA; transient expression in Nicotiana benthamiana leaves", "T3 sequence (A0A3B1EU92 1-758)": "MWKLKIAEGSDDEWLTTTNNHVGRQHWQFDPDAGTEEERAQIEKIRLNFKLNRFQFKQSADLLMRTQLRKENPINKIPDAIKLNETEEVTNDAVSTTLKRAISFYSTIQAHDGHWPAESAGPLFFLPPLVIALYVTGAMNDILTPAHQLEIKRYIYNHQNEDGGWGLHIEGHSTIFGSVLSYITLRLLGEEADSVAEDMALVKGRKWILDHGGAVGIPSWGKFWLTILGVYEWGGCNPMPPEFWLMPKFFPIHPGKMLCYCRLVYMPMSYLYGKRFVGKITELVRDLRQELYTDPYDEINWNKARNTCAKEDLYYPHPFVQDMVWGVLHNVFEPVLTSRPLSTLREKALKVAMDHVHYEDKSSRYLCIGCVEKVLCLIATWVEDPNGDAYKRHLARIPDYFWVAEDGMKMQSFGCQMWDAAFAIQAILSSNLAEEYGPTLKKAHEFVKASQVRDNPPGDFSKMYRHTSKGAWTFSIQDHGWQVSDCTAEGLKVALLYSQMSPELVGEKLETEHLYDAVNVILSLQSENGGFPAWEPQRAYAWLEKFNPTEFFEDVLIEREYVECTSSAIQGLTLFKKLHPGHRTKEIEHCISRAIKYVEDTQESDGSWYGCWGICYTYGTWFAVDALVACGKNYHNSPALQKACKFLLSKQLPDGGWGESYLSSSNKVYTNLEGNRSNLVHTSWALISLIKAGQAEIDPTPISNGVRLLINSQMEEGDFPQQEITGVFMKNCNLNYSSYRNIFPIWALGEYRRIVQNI", "test": "transient expression in N. benthamiana leaves, GC-MS", "settings": "with Tkhmgrc1; endogenous 2,3-oxidosqualene; predominant product"}, "[4]": {"target": "T4, CYP716A263 (Taraxacum kok-saghyz, UniProt A0A3S5GS06)", "T4 construct": "full-length 473 residues (1,422 bp), from latex cDNA; transient expression in Nicotiana benthamiana leaves with host reductase", "T4 sequence (A0A3S5GS06 1-473)": "as the sequence (A0A3S5GS06 1-473) above", "test": "co-expression in N. benthamiana leaves, GC-MS", "settings": "C-3 oxidation to lupenone; lupeol formed in situ by co-expressed TkLUP with Tkhmgrc1"}},
  "data": [
    {"smiles": "CC1(C)CC[C@]2(C)CC[C@]3(C)C(=CC[C@@H]4[C@@]5(C)CC[C@H](O)C(C)(C)[C@@H]5CC[C@]43C)[C@@H]2C1", "note": "[β-amyrin]", "values": [
      {"measurement": "expression in S. cerevisiae, GC-MS", "setting": "[1]", "value": "TkOSC6 expression in yeast led to the identification of β-amyrin as main product"}
    ]},
    {"smiles": "C=C1CC[C@]2(C)CC[C@]3(C)[C@H](CC[C@@H]4[C@@]5(C)CC[C@H](O)C(C)(C)[C@@H]5CC[C@]43C)[C@H]2[C@@H]1C", "note": "[taraxasterol]", "values": [
      {"measurement": "co-expression in S. cerevisiae, GC-MS", "setting": "[2]", "value": "taraxasterol, as the most abundant product, was converted to taraxasterone"}
    ]},
    {"smiles": "C=C(C)[C@@H]1CC[C@]2(C)CC[C@]3(C)[C@H](CC[C@@H]4[C@@]5(C)CC[C@H](O)C(C)(C)[C@@H]5CC[C@]43C)[C@@H]12", "note": "[lupeol]", "values": [
      {"measurement": "transient expression in N. benthamiana leaves, GC-MS", "setting": "[3]", "value": "TkLUP in combination with Tkhmgrc1 led to the predominant production of lupeol"},
      {"measurement": "co-expression in N. benthamiana leaves, GC-MS", "setting": "[4]", "value": "CYP716A263 is capable of converting lupeol into lupenone and exhibits a C-3 oxidation activity"}
    ]}
  ]
}
